Data as given in PubChem BioAssay (NCI).
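Compound exposure: 48 hours, 5 concentrations, 96-well plates. TGI: concentration producing complete growth inhibition.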

Key:
Assay in all cases: DTP human tumour cell line panel, 48 h
EKVX NSCLC = tested on: EKVX NSCLC
NCI-H460 lung = tested on: NCI-H460 lung
IGROV1 ovarian = tested on: IGROV1 ovarian
HCT-116 colon = tested on: HCT-116 colon
MOLT-4 leukemia = tested on: MOLT-4 leukemia
786-0 renal = tested on: 786-0 renal
HS 578T breast = tested on: HS 578T breast
SK-MEL-28 melanoma = tested on: SK-MEL-28 melanoma
SR leukemia = tested on: SR leukemia
OVCAR-3 ovarian = tested on: OVCAR-3 ovarian
LOX IMVI melanoma = tested on: LOX IMVI melanoma
A498 renal = tested on: A498 renal
UACC-62 melanoma = tested on: UACC-62 melanoma
RPMI-8226 leukemia = tested on: RPMI-8226 leukemia
NCI-H23 lung = tested on: NCI-H23 lung
HT29 colon = tested on: HT29 colon
PC-3 prostate = tested on: PC-3 prostate
SF-539 CNS = tested on: SF-539 CNS
T-47D breast = tested on: T-47D breast
SK-MEL-5 melanoma = tested on: SK-MEL-5 melanoma
RXF 393 renal = tested on: RXF 393 renal
DU-145 prostate = tested on: DU-145 prostate
M14 melanoma = tested on: M14 melanoma
HOP-62 NSCLC = tested on: HOP-62 NSCLC
HCC-2998 colon = tested on: HCC-2998 colon
OVCAR-5 ovarian = tested on: OVCAR-5 ovarian
SK-MEL-2 melanoma = tested on: SK-MEL-2 melanoma
U251 CNS = tested on: U251 CNS
MDA-MB-231 breast = tested on: MDA-MB-231 breast
OVCAR-4 ovarian = tested on: OVCAR-4 ovarian
SK-OV-3 ovarian = tested on: SK-OV-3 ovarian
SF-268 CNS = tested on: SF-268 CNS
COLO 205 colon = tested on: COLO 205 colon
HCT-15 colon = tested on: HCT-15 colon
SF-295 CNS = tested on: SF-295 CNS
MALME-3M melanoma = tested on: MALME-3M melanoma
UO-31 renal = tested on: UO-31 renal
MDA-N = tested on: MDA-N
MDA-MB-435 = tested on: MDA-MB-435
SN12C renal = tested on: SN12C renal
NCI-H226 lung = tested on: NCI-H226 lung
HL-60(TB) leukemia = tested on: HL-60(TB) leukemia
MCF7 breast = tested on: MCF7 breast
K-562 leukemia = tested on: K-562 leukemia
UACC-257 melanoma = tested on: UACC-257 melanoma
CAKI-1 renal = tested on: CAKI-1 renal
A549 NSCLC = tested on: A549 NSCLC
HOP-92 NSCLC = tested on: HOP-92 NSCLC
SNB-19 CNS = tested on: SNB-19 CNS
ACHN renal = tested on: ACHN renal
NCI/ADR-RES ovarian = tested on: NCI/ADR-RES ovarian
OVCAR-8 ovarian = tested on: OVCAR-8 ovarian
SW-620 colon = tested on: SW-620 colon
CCRF-CEM leukemia = tested on: CCRF-CEM leukemia
SNB-75 CNS = tested on: SNB-75 CNS
BT-549 breast = tested on: BT-549 breast
KM12 colon = tested on: KM12 colon

Measured: TGI

C=C1CCCCCCCCCCC1S(=O)c1ccccc1 (configuration not stated)
64.8 µM: SR leukemia
78.5 µM: MOLT-4 leukemia
92.2 µM: M14 melanoma
55.4 µM: SN12C renal
82.6 µM: K-562 leukemia
96.4 µM: SK-OV-3 ovarian
53.2 µM: U251 CNS
59.3 µM: MDA-MB-435
33.4 µM: IGROV1 ovarian
95.8 µM: SF-268 CNS
39.2 µM: HL-60(TB) leukemia
65.5 µM: MCF7 breast
57.3 µM: COLO 205 colon
75.3 µM: MDA-MB-231 breast
54.4 µM: RPMI-8226 leukemia
64.5 µM: RXF 393 renal
37.2 µM: SF-539 CNS
38.2 µM: 786-0 renal
91.3 µM: LOX IMVI melanoma
39.6 µM: UO-31 renal
not listed: OVCAR-8 ovarian | SW-620 colon | CCRF-CEM leukemia | SNB-75 CNS | BT-549 breast | KM12 colon
> 100 µM: all other assays above

Cc1nc2c(Br)cc(Br)cc2c(=O)n1-c1ccccc1N
87.6 µM: BT-549 breast
96.2 µM: CAKI-1 renal
66.5 µM: HL-60(TB) leukemia
83.8 µM: UO-31 renal
87.3 µM: SNB-75 CNS
66.9 µM: HCT-116 colon
39 µM: SK-MEL-5 melanoma
99.6 µM: NCI-H226 lung
44 µM: COLO 205 colon
58.1 µM: SK-MEL-2 melanoma
86.5 µM: UACC-257 melanoma
65.4 µM: HT29 colon
not listed: RPMI-8226 leukemia | NCI-H23 lung | T-47D breast | RXF 393 renal | U251 CNS | HOP-92 NSCLC
> 100 µM: all other assays above
